In US12606540B2, “Triazolone compound” (MEDSHINE DISCOVERY INC., priority 2020, dated 2026):
Read-outs that look alike come from different tables or passages of the source. Each block holds one molecule with its values, some of them ahead of it.

What was measured:
[1] = system: influenza virus A/Weiss/43 (H1N1); assay: Influenza virus cytopathic effect (CPE) experiment in MDCK cells; assay type: cell-based; details: unidentified influenza virus, H1N1, 120 h, 5 days incubation, CCK8
DHODH enzyme = DHODH enzyme (Homo sapiens, UniProt Q02127); assay: DHODH enzyme inhibitory activity in vitro (resazurin fluorescence); assay type: biochemical; details: 5 nM DHODH, 15 μM L-DHO, 80 μM Resazurin
From the text: The DHODH inhibitory activity of the compounds was detected by the following experimental method, and the experimental results are as shown in Table 1.
DHODH uses flavin mononucleotide FMN to catalyze the oxidation of dihydrooratic acid DHO to produce oratic acid, while the re-oxidation of FMN requires the participation of coenzyme CoQ. In the experiment of detecting the DHODH enzyme activity, CoQ was replaced by Resazurin dye as the final electron acceptor in the enzyme activity reaction. Resazurin solution is blue, and the resorufin generated after reduction has red fluorescence, and the fluorescence signal can be detected under the 535 nm of excitation wavelength and the 590 nm of emission wavelength. The components of the reaction buffer used in the experiment were 100 mM Hepes pH 7.0, 150 mM NaCl, 0.3% CHAPS, 0.5 mg/mL BSA, 0.1 μM FMN and 1% DMSO. The final concentration of DHODH enzyme in the reaction system was 5 nM, and the final concentration of substrate L-DHO was 15 μM, the final concentration of indicator Resazurin was 80 μM. The components of the reaction stop buffer were 100 mM Hepes pH 7.0 and 5 mM Orotate. The specific method was as follows: 2-fold final concentration of the DHODH enzyme solution was mixed with the compound, incubated at room temperature for 20 min, 2-fold final concentration of the substrate mixture solution of L-DHO and resazurin was added and reacted, incubated at room temperature away from light for 45 min. Then the reaction was stopped by adding 2-fold final concentration of the reaction stop buffer to the reaction system, and incubated at room temperature for 10 min, the fluorescence signal of the reaction system was detected with EnVision under the condition of Ex/Em=535/590 nm.

MDR1 (P-glycoprotein) = assay: Permeability evaluation on MDR1-MDCK II cell line; details: dog, MDCK-MDR1, pH 7.4
[2] = Pharmacokinetic evaluation in mice (IV and PO); assay type: in vivo, female Balb/c mice; details: for MRT last: read-out: MRT0-last
Method: Experiment process: 0.04 mg/mL of a clarified solution of the test compound in 5% DMSO/10% Solutol solution/85% water was injected into female Balb/c mice (overnight fasting, 7-9 weeks of age) via tail vein, with dosage of 0.2 mg/kg. 0.1 mg/mL of the test compound in 5% DMSO/10% Solutol solution/0.2% Tween80/84.8% water was administered by gavage to female Balb/c mice (overnight fasting, 7-9 weeks of age), with dosage of 1 mg/kg. About 30 μL of blood was collected from the jugular vein at 0.0833, 0.25, 0.5, 1.0, 2.0, 4.0, 8.0, 10 and 24 h and from the tail vein at 0.25, 0.5, 1.0, 2.0, 4.0, 8.0 and 24 h after administration for both groups of animals, and were placed in anticoagulation tubes with EDTA-K2, and the blood was separated by centrifugation to obtain plasma. Plasma concentrations were detected by LC-MS/MS, and relevant pharmacokinetic parameters were calculated using WinNonlin™ Version 6.3 (Pharsight, Mountain View, CA) pharmacokinetic software with a non-compartmental model linear logarithmic trapezoid method.

[3] = system: human peripheral blood mononuclear cells; assay: Proliferation inhibition of peripheral blood mononuclear cells (flow cytometry); assay type: cell-based; details: PBMC, PHA-M 5 μg/mL stimulation, 48 hours
Method: Flow cytometry was used to detect cell proliferation of human peripheral blood mononuclear cells.
• Cell complete medium: 445 mL of RPMI1640 cell culture+50 mL of fetal bovine serum+5 mL of double antibody • Buffer 1: 9.9 mL of phosphate buffer+0.1 mL of 10% bovine serum protein • Buffer 2: 10 mL of fetal bovine serum+490 mL of phosphate buffer 3.2 Cell Thawing • 3.2.1 20 mL of cell complete medium was added to a 50 mL of centrifuge tube and pre-heated in a 37° C. water bath for 5 minutes; • 3.2.2 the cell cryotubes were removed from the liquid nitrogen storage tank and placed on dry ice for 5-10 minutes to allow the liquid nitrogen to evaporate fully; • 3.2.3 the cell cryotubes were clamped with forceps and placed in the water bath, and shaken gently to thaw the frozen cells quickly; • 3.2.4 the thawed cells were transferred to the pre-heated cell complete medium with a pipette, centrifuged at 350 g for 5 min, then the supernatant was discarded, and the cells was resuspended by adding 10 mL of phosphate buffer; • 3.2.5 counting by cell counter, and cell viability and cell count were recorded. 3.3 Cell Labeling • 3.3.1 Cell proliferation labeling solution (CellTrace™ Violet, 1:1000 dilution) was prepared • 3.3.2 the above mixture was centrifuged at 350 g for 5 minutes, and the supernatant was discarded, then the cells (20×10^6/mL) were resuspended by adding Buffer 1, and the resuspended cells were gently blown by pipette, and an equal volume of cell proliferation labeling solution (prepared in 3.3.1) was added, and gently blown well by pipette; • 3.3.3 incubating in a 5% CO2, 37° C. cell incubator for 18 minutes; • 3.3.4 the 5-fold volume of cell complete medium was added and leaved at room temperature for 5 minutes to terminate the staining reaction; • 3.3.5 the above mixture was centrifuged at 350 g for 5 minutes, and the supernatant was discarded, then the cells were resuspended by adding 10 mL of cell complete medium, counted by cell counter, and cell viability and cell count were recorded; • 3.3.6 the above mixture was centrifuged at 350 g for 5 minutes, and the supernatant was discarded, then the corresponding volume of cell complete medium was added according to the cell counting results, and the density of the resuspended cells was 2×10^6/mL and was to be used. 3.4 Cell Proliferation Stimulation • 3.4.1 50 μL/well prepared cell suspension (1×10^5 cells/well), 50 μL of 4×PHA-M (the final concentration is 5 μg/mL), 50 μL of 4×test compound, 50 μL of cell complete medium were added to the wells of 96-well cell culture plate, and the corresponding control group was set up; (total volume of the reaction system is 200 μL) • 3.4.2 the cell culture plate was placed and incubated in a 5% CO2, 37° C. cell incubator for 48 hours. 3.5 Cell Proliferation Detection • 3.5.1 the above mixture was centrifuged at 350 g for 5 minutes and the supernatant was transferred to a new cell culture plate and stored at −80° C.; • 3.5.2 200 μL of Buffer 2 was add to the wells of the culture plate, and the above mixture was centrifuged at 350 g and the supernatant was discarded; • 3.5.3 cell dead or living staining solution (7-AAD, 1:100 dilution) was prepared with Buffer 2; • 3.5.4 100 μL/well of dead or living staining solution was added, and gently blown and mixed well by pipette, and stained at room temperature for 10 min; • 3.5.5 cell proliferation was detected by flow cytometry analyzer and analyzed by Flowjo software.

[4] = female, Balb/c, mouse, plasma, IV 0.2 mg/kg
[5] = female, Balb/c, mouse, plasma, PO 1 mg/kg

Chain of DHODH enzyme (Q02127 whole entry): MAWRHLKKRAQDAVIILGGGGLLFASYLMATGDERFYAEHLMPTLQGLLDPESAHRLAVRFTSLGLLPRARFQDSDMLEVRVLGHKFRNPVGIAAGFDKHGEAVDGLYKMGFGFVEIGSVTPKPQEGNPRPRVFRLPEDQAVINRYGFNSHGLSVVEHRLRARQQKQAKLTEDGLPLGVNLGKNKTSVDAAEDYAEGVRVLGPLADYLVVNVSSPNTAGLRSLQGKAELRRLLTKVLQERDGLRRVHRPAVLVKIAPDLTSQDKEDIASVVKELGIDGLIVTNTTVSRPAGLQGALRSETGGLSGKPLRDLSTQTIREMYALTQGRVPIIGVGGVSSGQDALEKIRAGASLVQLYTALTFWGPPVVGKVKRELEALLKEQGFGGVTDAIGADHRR

Compound: CCn1c(CO)nn(-c2cc(O[C@@H](C)C(F)(F)F)c(/C(F)=C/c3c(F)cccc3Cl)cc2F)c1=O [Compound 1]
EC50 [1]: < 1 nM
IC50 (DHODH enzyme): 0.71 nM

Compound: CCn1c(CO)nn(-c2cc(O[C@@H](C)C(F)(F)F)c(/C=C/c3cccnc3C(F)F)cc2F)c1=O [Compound 38]
IC50 (DHODH enzyme): 26.5 nM

Compound: CCn1c(CO)nn(-c2cc(O[C@@H](C)C(F)(F)F)c(/C(F)=C/c3cccnc3Cl)cc2F)c1=O [Compound 26]
EC50 [1]: 2.4 nM
Papp A→B at 150 min, 2 μM (MDR1 (P-glycoprotein)): 8.59 ×10⁻⁶ cm/s
Papp B→A at 150 min, 2 μM (MDR1 (P-glycoprotein)): 7.76 ×10⁻⁶ cm/s
Papp at 150 min, 2 μM (MDR1 (P-glycoprotein)): > 5.5 ×10⁻⁶ cm/s
efflux ratio at 150 min, 2 μM (MDR1 (P-glycoprotein)): 0.9
Tlast ([2]; IV 0.2 mg/kg): 24 h
F ([2]; PO 1 mg/kg): 80.2%
AUC(0-inf) [2, 4]: 2.86 µM·h
AUC(0-t) [2, 4]: 2.29 µM·h
clearance [2, 4]: 2.32 mL/min/kg
half-life [2, 4]: 9.68 h
MRT last [2, 4]: 8.04 h
Vd ([2]; female, Balb/c, mouse, plasma, IV 0.2 mg/kg, read-out: VdSS): 1.93 L/kg
AUC(0-inf) [2, 5]: 13 µM·h
AUC(0-t) [2, 5]: 9.2 µM·h
Tmax [2, 5]: 1 h
half-life [2, 5]: 14.8 h
MRT last [2, 5]: 8.9 h
C0 ([2]; female, Balb/c, mouse, IV 0.2 mg/kg, plasma): 451 nM
Cmax ([2]; female, Balb/c, mouse, PO 1 mg/kg, plasma): 872 nM
IC50 (DHODH enzyme): 1.5 nM
IC50 [3]: 4.6 nM

Compound: CCn1c(CO)nn(-c2cc(O[C@@H](C)C(F)(F)F)c(/C(F)=C/c3cnccc3Cl)cc2F)c1=O [Compound 28]
EC50 [1]: 43 nM
Papp A→B at 150 min, 2 μM (MDR1 (P-glycoprotein)): 8.65 ×10⁻⁶ cm/s
Papp B→A at 150 min, 2 μM (MDR1 (P-glycoprotein)): 10.7 ×10⁻⁶ cm/s
Papp at 150 min, 2 μM (MDR1 (P-glycoprotein)): > 5.5 ×10⁻⁶ cm/s
efflux ratio at 150 min, 2 μM (MDR1 (P-glycoprotein)): 1.24
IC50 (DHODH enzyme): 2.4 nM
IC50 [3]: 8.4 nM

Compound: CCn1c(CO)nn(-c2cc(O[C@@H](C)C(F)(F)F)c(/C(F)=C/c3ncccc3C(F)F)cc2F)c1=O [Compound 30]
IC50 (DHODH enzyme): 8 nM

Compound: CCn1c(CO)nn(-c2cc(O[C@@H](C)C(F)(F)F)c(/C=C/c3cccnc3Cl)cc2F)c1=O [Compound 37]
IC50 (DHODH enzyme): 31.8 nM

The next lines start with the values.

IC50 (DHODH enzyme): 9 nM
Compound: CCn1c(C(=O)O)nn(-c2cc(O[C@@H](C)C(F)(F)F)c(/C(F)=C/c3c(F)cncc3Cl)cc2F)c1=O [Compound 21]

IC50 (DHODH enzyme): 8 nM
Compound: CCn1c(C(=O)O)nn(-c2cc(O[C@@H](C)C(F)(F)F)c(/C(F)=C/c3ncccc3Cl)cc2F)c1=O [Compound 24]

IC50 (DHODH enzyme): 121 nM
Compound: CCn1c(CO)nn(-c2cc(OC(C)C(F)(F)F)c(C=Cc3ncccc3Cl)cc2F)c1=O (centres unmarked) [Compound 22]

IC50 (DHODH enzyme): 7.3 nM
Compound: CCn1c(CO)nn(-c2cc(O[C@@H](C)C(F)(F)F)c(/C(F)=C/c3cccnc3)cc2F)c1=O [Compound 40]
